According to paper PMC5452050 (ACS Omega, 2017):
Positions count from the first letter of the chain named.

Experiments:
Test in all cases: Kd determination
Assay type in all cases: binding
[1] = biological target: T1, FLT3 (ITD) (Homo sapiens, UniProt P36888, ITD)
T1 sequence (P36888 564-993): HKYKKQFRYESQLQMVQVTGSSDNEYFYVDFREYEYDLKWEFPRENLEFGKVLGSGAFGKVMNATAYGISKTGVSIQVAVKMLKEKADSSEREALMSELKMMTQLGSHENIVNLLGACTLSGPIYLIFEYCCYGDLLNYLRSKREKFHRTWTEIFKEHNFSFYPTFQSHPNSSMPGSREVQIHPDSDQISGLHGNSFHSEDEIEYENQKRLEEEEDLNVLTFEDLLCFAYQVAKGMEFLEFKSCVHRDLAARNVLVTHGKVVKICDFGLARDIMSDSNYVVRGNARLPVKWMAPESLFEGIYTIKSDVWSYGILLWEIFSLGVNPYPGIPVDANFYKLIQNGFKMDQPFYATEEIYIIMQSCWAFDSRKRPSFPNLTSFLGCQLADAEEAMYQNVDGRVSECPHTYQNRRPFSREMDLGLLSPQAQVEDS

[2] = biological target: T2, FLT3 (D835Y) (Homo sapiens, UniProt P36888, D835Y)
T2 sequence (P36888 27-993 D835Y): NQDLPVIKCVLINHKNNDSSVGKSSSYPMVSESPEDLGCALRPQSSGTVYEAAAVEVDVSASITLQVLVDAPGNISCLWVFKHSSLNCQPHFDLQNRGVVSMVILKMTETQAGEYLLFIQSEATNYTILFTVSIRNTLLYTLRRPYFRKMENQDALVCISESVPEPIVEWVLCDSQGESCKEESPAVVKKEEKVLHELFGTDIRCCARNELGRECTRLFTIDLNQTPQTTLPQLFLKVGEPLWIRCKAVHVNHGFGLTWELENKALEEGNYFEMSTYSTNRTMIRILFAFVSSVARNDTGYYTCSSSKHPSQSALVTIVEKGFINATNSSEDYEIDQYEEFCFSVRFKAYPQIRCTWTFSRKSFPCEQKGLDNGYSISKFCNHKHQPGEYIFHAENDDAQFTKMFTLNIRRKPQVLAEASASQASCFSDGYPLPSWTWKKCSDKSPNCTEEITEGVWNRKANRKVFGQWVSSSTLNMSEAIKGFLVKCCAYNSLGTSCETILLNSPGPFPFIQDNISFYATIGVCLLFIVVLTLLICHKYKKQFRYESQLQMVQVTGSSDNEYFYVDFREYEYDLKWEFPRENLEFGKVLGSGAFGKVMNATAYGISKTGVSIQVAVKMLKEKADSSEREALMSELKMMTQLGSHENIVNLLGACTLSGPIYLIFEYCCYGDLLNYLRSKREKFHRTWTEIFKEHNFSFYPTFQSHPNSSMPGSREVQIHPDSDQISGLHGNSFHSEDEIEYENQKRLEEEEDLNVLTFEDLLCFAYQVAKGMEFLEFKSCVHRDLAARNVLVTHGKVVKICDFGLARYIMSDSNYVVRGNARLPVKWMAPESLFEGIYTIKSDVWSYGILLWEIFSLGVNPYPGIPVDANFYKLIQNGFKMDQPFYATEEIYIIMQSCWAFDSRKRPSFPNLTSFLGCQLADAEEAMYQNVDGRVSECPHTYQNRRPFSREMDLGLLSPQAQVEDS

[3] = biological target: T3, FLT3 (R834Q) (Homo sapiens, UniProt P36888, R834Q)
T3 sequence (P36888 27-993 R834Q): T2 sequence (P36888 27-993 D835Y) with R808Q, Y809D

Row | Kd [1] [nM] | Kd [2] [nM] | Kd [3] [nM] | SMILES
1 | 31 | 13 | 680 | c1cncc(-c2cccc(Nc3nccc(NC4CCCCC4)n3)c2)c1 [Compound 1, N^4-Cyclohexyl-N^2-(3-(pyridin-3-yl)phenyl)pyrimidine-2,4-diamine]
2 | 1.4 | 0.59 | 82 | CC(C)Nc1ccnc(Nc2cccc(-c3cccnc3)c2)n1 [Compound 5e, N^4-Isopropyl-N^2-(3-(pyridin-3-yl)phenyl)pyrimidine-2,4-diamine]
3 | > 10000 | > 10000 | > 10000 | CC(C)Nc1ccnc(Nc2ccccc2-c2ccccc2)n1 [Compound 6a, N^2-([1,1′-Biphenyl]-2-yl)-N^4-isopropylpyrimidine-2,4-diamine]
